Measurements: ChEMBL document CHEMBL5465560, “Selectivity Literature for EUbOPEN Chemogenomic Library” (2024)
One block for each molecule: values may come before it.

How the values were obtained:
[1] = biological target: T1, Tyrosine-protein kinase TXK (Homo sapiens) (UniProt P42681); test: Selectivity interaction (Ambit KINOMEscan and KiNATiv profiling in Jurkat cells) EUB0000090b TXK; type: cell-based; settings: at 1 µM
T1 sequence (whole entry): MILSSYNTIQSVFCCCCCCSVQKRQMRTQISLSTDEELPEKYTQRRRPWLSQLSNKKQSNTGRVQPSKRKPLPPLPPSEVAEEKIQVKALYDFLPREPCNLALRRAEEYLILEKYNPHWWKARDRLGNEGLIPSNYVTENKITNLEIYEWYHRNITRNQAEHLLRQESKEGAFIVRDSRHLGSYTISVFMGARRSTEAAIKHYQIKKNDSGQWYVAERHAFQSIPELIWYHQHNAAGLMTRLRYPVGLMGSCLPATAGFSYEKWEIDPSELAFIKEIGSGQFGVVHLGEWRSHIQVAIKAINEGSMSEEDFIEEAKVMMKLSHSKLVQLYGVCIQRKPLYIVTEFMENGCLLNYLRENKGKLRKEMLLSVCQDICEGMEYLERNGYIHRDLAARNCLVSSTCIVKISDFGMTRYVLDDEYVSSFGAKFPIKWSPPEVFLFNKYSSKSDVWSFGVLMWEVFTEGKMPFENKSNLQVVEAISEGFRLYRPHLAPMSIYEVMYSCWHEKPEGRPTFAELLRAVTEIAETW

[2] = biological target: T2, Myosin-IIIb (Homo sapiens) (UniProt Q8WXR4); test: Selectivity interaction (KinomeScan (DiscoverX)) EUB0001079a MYO3B; settings: at 1 µM
T2 sequence (whole entry): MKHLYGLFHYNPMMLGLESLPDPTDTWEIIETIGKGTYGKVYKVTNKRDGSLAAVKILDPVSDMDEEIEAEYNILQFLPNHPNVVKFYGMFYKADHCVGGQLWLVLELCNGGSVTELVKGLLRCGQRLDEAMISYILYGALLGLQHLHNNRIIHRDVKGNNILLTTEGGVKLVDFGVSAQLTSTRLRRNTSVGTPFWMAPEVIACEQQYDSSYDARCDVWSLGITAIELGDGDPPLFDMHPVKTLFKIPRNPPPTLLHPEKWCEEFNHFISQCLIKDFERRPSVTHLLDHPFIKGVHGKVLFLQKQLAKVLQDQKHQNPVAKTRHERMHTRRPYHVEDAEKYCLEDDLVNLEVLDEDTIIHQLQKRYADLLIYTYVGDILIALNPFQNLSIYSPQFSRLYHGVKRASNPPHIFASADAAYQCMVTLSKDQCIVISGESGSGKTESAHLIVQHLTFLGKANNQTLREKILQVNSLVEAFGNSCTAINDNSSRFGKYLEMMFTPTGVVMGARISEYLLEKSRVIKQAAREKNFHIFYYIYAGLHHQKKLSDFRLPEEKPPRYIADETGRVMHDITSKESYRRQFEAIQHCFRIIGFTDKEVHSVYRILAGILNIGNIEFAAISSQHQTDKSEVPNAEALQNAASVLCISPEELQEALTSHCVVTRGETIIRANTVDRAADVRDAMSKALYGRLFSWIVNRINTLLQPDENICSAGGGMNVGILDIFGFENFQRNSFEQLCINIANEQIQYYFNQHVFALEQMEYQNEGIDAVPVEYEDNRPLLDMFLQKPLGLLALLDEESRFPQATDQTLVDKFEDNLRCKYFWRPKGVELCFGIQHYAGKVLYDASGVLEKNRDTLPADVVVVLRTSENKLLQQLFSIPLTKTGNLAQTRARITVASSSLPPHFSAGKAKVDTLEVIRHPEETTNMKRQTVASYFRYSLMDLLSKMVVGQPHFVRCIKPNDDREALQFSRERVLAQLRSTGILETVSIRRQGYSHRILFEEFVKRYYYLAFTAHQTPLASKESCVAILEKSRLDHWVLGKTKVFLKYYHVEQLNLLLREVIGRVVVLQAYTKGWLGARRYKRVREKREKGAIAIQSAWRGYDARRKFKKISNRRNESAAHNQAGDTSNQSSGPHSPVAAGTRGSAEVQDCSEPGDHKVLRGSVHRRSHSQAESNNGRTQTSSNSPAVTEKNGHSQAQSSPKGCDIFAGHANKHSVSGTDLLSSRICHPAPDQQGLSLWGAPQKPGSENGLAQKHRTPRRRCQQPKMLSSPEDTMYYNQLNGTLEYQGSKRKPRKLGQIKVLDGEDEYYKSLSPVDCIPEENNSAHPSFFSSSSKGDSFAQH

[3] = biological target: T3, Rhodopsin kinase GRK7 (Homo sapiens) (UniProt Q8WTQ7); test: Selectivity interaction (SelectScreen profiling (Invitrogen)) EUB0000607a GRK7; settings: at 2 µM
T3 sequence (whole entry): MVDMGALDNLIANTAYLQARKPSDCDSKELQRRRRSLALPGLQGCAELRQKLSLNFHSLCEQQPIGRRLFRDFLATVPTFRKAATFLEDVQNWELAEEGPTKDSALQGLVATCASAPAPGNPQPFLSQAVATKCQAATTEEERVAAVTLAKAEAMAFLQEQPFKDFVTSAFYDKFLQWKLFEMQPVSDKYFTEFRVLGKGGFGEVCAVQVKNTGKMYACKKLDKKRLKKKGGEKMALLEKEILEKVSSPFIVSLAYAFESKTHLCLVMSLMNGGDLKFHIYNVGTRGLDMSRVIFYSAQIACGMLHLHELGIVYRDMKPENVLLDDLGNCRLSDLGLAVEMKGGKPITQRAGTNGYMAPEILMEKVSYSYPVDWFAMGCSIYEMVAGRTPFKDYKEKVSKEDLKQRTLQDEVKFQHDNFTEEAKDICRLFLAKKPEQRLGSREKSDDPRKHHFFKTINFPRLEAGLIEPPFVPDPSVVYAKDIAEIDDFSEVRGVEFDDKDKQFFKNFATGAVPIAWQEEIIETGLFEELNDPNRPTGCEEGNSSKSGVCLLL

[4] = biological target: Ribosomal protein S6 kinase alpha-3 (Homo sapiens, UniProt P51812); test: Selectivity interaction (ActivX KiNativ screen (ex vivo kinase selectivity in human PBMCs)) EUB0001619a RPS6KA3; type: cell-based; settings: PBMC, at 1 µM
[5] = biological target: Fibroblast growth factor receptor 1 (Homo sapiens, UniProt P11362); test: Selectivity interaction (KinomeScan (DiscoverX)) EUB0001619a FGFR1; settings: at 1 µM
[6] = biological target: Ribosomal protein S6 kinase beta-1 (Homo sapiens, UniProt P23443); test: Selectivity interaction (ActivX KiNativ screen (kinase selectivity in THP-1 cell lysates)) EUB0000639a RPS6KB1; type: subcellular; settings: lysate, at 1 µM
[7] = biological target: Ephrin type-A receptor 5 (Homo sapiens) (UniProt P54756); test: Selectivity interaction (KinomeScan (DiscoverX)) EUB0001049a EPHA5; settings: at 1 µM
[8] = biological target: Myosin light chain kinase, smooth muscle (Homo sapiens, UniProt Q15746); test: Selectivity interaction (KinomeScan (DiscoverX)) EUB0001049a MYLK; settings: at 1 µM
[9] = biological target: Dual specificity protein kinase CLK2 (Homo sapiens, UniProt P49760); test: Selectivity interaction (Kinase panel (Z-LYTE Assay)) EUB0001632a CLK2; settings: at 10 µM
[10] = tested on: Tyrosine-protein kinase receptor UFO (Homo sapiens), P30530 [R499C]; test: Selectivity interaction (LanthaScreen Eu Kinase Binding Assay) EUB0001632a AXL; settings: at 10 µM
Tyrosine-protein kinase receptor UFO (Homo sapiens), P30530 [R499C], sequence (P30530 whole entry R499C): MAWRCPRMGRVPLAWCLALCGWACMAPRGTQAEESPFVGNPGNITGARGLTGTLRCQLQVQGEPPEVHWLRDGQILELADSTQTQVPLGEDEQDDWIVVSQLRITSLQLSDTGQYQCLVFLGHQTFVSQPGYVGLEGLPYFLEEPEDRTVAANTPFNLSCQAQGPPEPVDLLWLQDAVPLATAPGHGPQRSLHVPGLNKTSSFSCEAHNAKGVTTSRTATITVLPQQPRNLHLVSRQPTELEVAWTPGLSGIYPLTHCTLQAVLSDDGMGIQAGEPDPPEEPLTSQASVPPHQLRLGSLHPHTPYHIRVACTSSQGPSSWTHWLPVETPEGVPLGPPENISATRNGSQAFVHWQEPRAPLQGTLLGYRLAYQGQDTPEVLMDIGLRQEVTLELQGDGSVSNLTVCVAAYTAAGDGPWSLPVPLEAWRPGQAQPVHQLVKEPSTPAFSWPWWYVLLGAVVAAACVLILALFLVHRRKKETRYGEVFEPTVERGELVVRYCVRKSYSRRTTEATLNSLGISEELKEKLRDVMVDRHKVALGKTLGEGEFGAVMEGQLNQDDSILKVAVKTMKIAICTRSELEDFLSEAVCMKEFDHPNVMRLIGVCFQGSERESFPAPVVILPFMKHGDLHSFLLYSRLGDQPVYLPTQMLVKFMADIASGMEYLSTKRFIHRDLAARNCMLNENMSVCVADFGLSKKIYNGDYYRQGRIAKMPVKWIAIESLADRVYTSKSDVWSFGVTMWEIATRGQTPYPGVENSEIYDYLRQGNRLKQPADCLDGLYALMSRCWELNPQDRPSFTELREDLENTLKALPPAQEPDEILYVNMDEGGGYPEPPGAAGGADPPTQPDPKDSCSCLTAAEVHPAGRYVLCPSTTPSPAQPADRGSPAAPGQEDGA

Ribosomal protein S6 kinase alpha-3, sequence (P51812 whole entry): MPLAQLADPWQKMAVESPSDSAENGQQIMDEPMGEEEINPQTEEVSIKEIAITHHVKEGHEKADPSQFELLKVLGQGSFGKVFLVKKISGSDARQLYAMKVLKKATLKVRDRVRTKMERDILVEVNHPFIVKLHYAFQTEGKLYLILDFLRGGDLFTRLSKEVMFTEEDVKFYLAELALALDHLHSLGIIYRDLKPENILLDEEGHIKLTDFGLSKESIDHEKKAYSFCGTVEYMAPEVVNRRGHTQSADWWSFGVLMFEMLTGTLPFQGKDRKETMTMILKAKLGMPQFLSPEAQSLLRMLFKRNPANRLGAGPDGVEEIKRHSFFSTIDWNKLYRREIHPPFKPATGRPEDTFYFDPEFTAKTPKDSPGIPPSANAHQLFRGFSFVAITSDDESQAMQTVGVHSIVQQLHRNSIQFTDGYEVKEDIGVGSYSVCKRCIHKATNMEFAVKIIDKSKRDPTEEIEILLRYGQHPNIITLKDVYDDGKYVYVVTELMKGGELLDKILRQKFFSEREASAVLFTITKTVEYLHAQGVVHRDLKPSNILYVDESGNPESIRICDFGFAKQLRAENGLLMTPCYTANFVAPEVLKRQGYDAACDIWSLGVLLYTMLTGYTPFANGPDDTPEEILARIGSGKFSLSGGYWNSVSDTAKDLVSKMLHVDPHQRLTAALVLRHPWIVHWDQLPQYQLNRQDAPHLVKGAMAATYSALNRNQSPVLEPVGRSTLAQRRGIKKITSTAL
Dual specificity protein kinase CLK2, sequence (P49760 whole entry, looked up): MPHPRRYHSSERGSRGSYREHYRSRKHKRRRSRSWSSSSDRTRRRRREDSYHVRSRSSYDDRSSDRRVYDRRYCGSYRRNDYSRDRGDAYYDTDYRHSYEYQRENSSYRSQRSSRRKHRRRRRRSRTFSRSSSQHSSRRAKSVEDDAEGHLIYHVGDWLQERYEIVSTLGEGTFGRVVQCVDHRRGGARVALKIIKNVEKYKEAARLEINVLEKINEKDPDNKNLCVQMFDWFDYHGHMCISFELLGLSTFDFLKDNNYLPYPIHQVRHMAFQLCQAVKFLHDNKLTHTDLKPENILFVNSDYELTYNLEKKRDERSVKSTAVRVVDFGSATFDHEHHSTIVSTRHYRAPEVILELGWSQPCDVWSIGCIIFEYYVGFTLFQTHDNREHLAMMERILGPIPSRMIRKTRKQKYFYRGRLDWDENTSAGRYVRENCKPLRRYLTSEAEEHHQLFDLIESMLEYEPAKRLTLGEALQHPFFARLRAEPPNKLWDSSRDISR
Ribosomal protein S6 kinase beta-1, sequence (P23443 whole entry, looked up): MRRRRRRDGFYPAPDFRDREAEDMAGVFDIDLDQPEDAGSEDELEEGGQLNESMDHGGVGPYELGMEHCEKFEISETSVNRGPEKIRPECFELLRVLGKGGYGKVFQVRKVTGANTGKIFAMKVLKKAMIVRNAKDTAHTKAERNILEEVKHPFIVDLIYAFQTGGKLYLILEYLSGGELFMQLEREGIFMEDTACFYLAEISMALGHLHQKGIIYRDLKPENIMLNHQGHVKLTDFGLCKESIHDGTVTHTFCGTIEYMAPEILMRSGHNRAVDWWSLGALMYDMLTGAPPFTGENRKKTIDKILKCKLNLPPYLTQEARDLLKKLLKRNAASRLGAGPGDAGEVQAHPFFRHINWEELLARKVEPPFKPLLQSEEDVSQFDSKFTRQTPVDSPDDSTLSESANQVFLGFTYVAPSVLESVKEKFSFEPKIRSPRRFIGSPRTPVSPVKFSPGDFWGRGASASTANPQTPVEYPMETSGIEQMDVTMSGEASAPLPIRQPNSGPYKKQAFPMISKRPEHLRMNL
Ephrin type-A receptor 5 (Homo sapiens), sequence (P54756 whole entry): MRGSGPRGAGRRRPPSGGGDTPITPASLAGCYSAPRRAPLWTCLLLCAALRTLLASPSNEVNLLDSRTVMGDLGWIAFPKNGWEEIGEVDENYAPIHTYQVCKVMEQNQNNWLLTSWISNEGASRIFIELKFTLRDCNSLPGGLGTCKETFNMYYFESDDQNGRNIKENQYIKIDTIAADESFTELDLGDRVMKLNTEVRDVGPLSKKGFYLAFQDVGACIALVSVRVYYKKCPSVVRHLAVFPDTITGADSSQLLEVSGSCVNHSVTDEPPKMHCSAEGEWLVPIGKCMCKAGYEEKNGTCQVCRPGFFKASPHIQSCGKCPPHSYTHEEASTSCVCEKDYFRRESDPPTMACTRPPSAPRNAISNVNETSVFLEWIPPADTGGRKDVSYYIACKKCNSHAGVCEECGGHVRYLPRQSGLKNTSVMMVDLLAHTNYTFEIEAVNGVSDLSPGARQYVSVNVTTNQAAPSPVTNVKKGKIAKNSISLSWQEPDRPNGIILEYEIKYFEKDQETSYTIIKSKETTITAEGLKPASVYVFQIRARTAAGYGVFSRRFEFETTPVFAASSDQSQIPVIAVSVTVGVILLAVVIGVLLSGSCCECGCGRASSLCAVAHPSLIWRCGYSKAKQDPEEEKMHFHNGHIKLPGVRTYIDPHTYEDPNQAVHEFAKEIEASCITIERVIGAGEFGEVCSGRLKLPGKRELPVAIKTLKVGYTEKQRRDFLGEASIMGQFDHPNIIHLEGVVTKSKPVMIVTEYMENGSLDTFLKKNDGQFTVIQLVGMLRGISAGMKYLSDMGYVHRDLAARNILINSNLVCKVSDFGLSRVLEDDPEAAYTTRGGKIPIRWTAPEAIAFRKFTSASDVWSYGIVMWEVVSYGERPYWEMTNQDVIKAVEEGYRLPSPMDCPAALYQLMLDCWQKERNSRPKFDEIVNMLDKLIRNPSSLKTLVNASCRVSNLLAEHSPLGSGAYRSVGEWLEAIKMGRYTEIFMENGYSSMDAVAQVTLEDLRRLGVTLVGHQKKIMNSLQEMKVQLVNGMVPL
Fibroblast growth factor receptor 1, sequence (P11362 22-822 limits assumed): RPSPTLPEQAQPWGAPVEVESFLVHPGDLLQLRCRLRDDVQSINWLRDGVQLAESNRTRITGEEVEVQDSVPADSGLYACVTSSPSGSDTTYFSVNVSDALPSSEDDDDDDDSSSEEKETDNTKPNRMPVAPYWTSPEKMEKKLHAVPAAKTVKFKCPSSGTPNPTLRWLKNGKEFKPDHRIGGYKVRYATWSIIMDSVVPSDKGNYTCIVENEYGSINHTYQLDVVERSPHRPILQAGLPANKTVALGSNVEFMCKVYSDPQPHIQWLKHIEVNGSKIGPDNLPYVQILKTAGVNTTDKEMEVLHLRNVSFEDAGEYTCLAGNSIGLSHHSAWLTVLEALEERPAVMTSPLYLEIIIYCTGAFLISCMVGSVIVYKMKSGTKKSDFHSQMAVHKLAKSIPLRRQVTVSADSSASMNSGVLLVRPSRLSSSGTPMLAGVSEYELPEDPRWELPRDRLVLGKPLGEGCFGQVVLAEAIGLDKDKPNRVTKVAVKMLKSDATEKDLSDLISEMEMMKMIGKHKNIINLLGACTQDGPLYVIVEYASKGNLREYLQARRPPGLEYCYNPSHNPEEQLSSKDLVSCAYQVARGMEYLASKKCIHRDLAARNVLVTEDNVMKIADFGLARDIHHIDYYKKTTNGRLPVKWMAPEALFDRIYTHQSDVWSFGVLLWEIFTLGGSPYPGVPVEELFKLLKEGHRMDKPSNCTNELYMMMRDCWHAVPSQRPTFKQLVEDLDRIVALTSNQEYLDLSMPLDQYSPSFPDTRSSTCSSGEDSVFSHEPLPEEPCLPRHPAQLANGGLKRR

Compound: CN(C)C/C=C/C(=O)Nc1ccc(C(=O)N2CCCC(Nc3ncc(Cl)c(-c4c[nH]c5ccccc45)n3)C2)cc1 (stereo not given)
% of control [1]: 94%

Compound: Nc1cnc(N2CCc3cc(S(=O)(=O)Nc4c(F)cc(Cl)cc4F)cc(N4CCCC4=O)c32)nc1 [TP-020n]
% of control [2]: 100%

Compound: CNC(=O)Nc1ccc(-c2nc(N3CC4CCC(C3)O4)c3cnn(C4CCC5(CC4)OCCO5)c3n2)cc1
% of inhibition [3]: 7%

Compound: N#Cc1cccc(-c2c[nH]c3ncnc(N4CCOCC4)c23)c1
% of inhibition [4]: 13%
% of control [5]: 100%

% of inhibition [6]: -5.5%
Compound: CC[C@@H]1[C@H](F)C(=O)N[C@@H]1COc1nccc2cc(C(N)=O)c(OC)cc12 [ZIMLOVISERTIB]

Compound: COc1cc(Nc2nc(C)cc(-c3cnn4nc(OC)ccc34)n2)cc(C(F)(F)F)c1
% of control [7]: 96%
% of control [8]: 58%

% of control [9]: 4.94%
% of inhibition [10]: -15.8%
Compound: Cn1cc(-n2cnc3c(NCc4nc5cc(Cl)c(Cl)cc5[nH]4)nc(N4CCOCC4)nc32)cn1
